Data set [1] deals with Mesenchymal stem cells. Kind of data set: RT-PCR of neuron-related genes (MAP2, DCX, Tau, NeuroD1, NSE, Nestin, NF-L). The format is cell-based, human. Conditions: 5 days after differentiation, compared to the control. As for the experimental part:
(§1) Mesenchymal stem cells were seeded in low glucose-Dulbecco's Modified Eagle's Medium (LG-DMEM) containing 10% fetal bovine serum (FBS) at a density of 5×10^3 cell/cm2. 24 hours after seeding, the medium was replaced with fresh DMEM/F-12 (1:1 mixed medium) supplemented with 1 uM hydrocortisone, […], 1% bovine serum albumin, and 0, 1, 2, 3, 4, 5 or 8 mM lipoic acid to induce differentiation into neural cells. Moreover, 1 uM forskolin was further added to promote differentiation into neural cells.
The total RNA was recovered and isolated using TRIzol® solution (Invitrogen, USA), and then 1 ug RNA was used to synthesize cDNA using an RT-PCR kit (Clontech, USA). The genes to be analyzed were MAP2, DCX, Tau, NeuroD1, NSE, Nestin and NF-L, and the primers used for the analysis are shown in the following Table 1.

The subject of data set [2] is Mesenchymal stem cells. Kind of data set: Cell viability measured by MTT. The format is cell-based, human. The protocol:
The cell viability was measured by MTT (3-(4,5-dimethylthiazol-2-yl)-2,5-diphenyltetrazolium bromide). Specifically, MTT solution (0.0333 g/ml DMEM) was added to the neural cells cultured in Example 3 for reaction at 37° C. for 90 minutes and then removed. Then, dimethyl sulfoxide (DMSO) was added and left to stand for 10 minutes, and the resulting solution was used to measure the absorbance at 570 nm using a spectrum analyzer. Mesenchymal stem cells were seeded in low glucose-Dulbecco's Modified Eagle's Medium (LG-DMEM) containing 10% fetal bovine serum (FBS) at a density of 5×10^3 cell/cm2. 24 hours after seeding, the medium was replaced with fresh DMEM/F-12 (1:1 mixed medium) supplemented with 1 ug hydrocortisone, […], 1% bovine serum albumin, and 0, 1, 2, 3, 4, 5 or 8 mM lipoic acid to induce differentiation into neural cells. Moreover, 1 ug forskolin or […] (NGF) might be further added to enhance differentiation into neural cells. […]

Data set [3] relates to Mesenchymal stem cells. Kind of data set: Differentiation into neural cells, cellular morphology under a microscope. The format is cell-based, human. The note with it: for maintenance of the morphology of neural cells: after induction of differentiation. The protocol: Mesenchymal stem cells obtained from adipose tissue used in this Example were StemPro® Adipose-derived Stem Cells (Product No. R7788-110) purchased from Invitrogen. Frozen ampoules were thawed, and cells were washed with DMEM, centrifuged at 800 RPM for 5 minutes, and cultured in DMEM containing low glucose (1000 mg/L) and supplemented with 10% fetal bovine serum (FBS).
as §1

Data set [4] relates to Mesenchymal stem cells. Kind of data set: Immunofluorescence staining of neuron-associated proteins. Conditions: all cases treated with lipoic acid, 5 days after differentiation, compared to the control. Format: cell-based, human. As for the experimental part: as §1
The neural cells cultured in Example 3 were fixed on glass coverslips with 4% paraformaldehyde for 10 minutes, blocked with PBS containing 1.5% bovine serum albumin (BSA), and then permeabilized with PBS containing 0.5% Triton™ X-100. Then, the cells were reacted with primary antibodies such as anti-NF-L, anti-MAP2, anti-GFAP, anti-NeuroD1 (Cell Signaling, USA), and anti-tau (Biosource, USA) at 4° C. for 16 hours. Then, the cells were washed with PBS for 10 minutes and reacted with species-specific secondary antibodies such as anti-rabbit IgG-Alexa Fluor® 488 or anti-mouse IgG-Alexa Fluor® 555 conjugate at room temperature for 1 hour. Then, the stained cells were mounted with Vectashield® mounting medium containing DAPI and contrast stained. The cells were examined using a Confocal Laser Scanning Microscope (LSM 510-meta, Germany), and the results are shown in FIG. 9.

Data set [5] deals with human cells. The note with it: serum-free culture of human cells; cited from earlier work.
In data set [6] the test system is Mesenchymal stem cells. Kind of data set: Western blot analysis of neuron-associated proteins (NSE, Nestin, NF-L). Format: cell-based, human. Conditions: 5 days after differentiation, compared to the control. As for the experimental part:
as §1
The neural cells cultured in Example 3 were washed with phosphate-buffered saline (PBS) and lysed with radioimmunoprecipitation (RIPA) buffer containing protease inhibitor. The total protein was measured using a BCA® Protein Assay kit (Pierce, USA), and 10 ug protein was electrophoresed on a 10% polyacrylamide gel and transferred to a nitrocellulose membrane. Then, the membrane was blocked with Tris-buffered saline (TBS) containing 5% skim milk and 0.5% Tween® 20 at room temperature for 30 minutes and reacted with antibodies such as anti-NSE, anti-Nestin, Anti-NF-L (Cell Signaling, USA), and β-actin (Sigma, USA) at 4° C. for 16 hours. Subsequently, the membrane was reacted with an anti-mouse or anti-rabbit secondary antibody at room temperature for 1 hour, exposed to ECL™ (Pierce™ Biotechnology, USA), and then imaged using a ChemiDoc™ XRS+Imaging System (BioRad®, USA).

Each structure is given as a SMILES string. A value given as a limit tells only on which side of the number the result lay.

What is called cell viability is the share of living cells, or the viability signal relative to a control. Low readings indicate more harm to the cells, high ones less harm to the cells. For `O=C(O)CCCC[C@@H]1CCSS1` (racemic) [lipoic acid], the results for the “expression of neuron-related genes (mRNAs)” value in data set [1] (4 mM lipoic acid) and in data set [1] (8 mM lipoic acid) were “further increased” and “increased”, respectively. Besides, the cell viability was found to be 61.4% in data set [2] (human, 4 mM) and 51.4% in data set [2] (human, 8 mM). The “maintenance of the morphology of neural cells” value in data set [3] is recorded as “well maintained up to 5 days”. Moreover, the “morphological changes of neural cells” value in data set [3] (lipoic acid at 1 mM, 5 days, with hydrocortisone, insulin, 1% bovine serum albumin) is on record as “no change”. For the same compound, in data set [3] (lipoic acid at more than 2 mM, 5 days, with 1 uM hydrocortisone, […], 1% bovine serum albumin), the “morphological changes of neural cells (dendrite formation)” value is recorded as “dendrites were well formed”. Also, in data set [4], the “expression of neuron-associated proteins (immunofluorescence)” value was “increased”. In data set [5], the “concentration known to cause cell apoptosis” value was ≥ 2000 µM. Besides, the “expression of neuron-associated proteins (Western blot)” value is “further increased” in data set [6] (4 mM lipoic acid) and “increased” in data set [6] (8 mM lipoic acid).

With `COc1ccc(O)c(C(C)(C)C)c1` [butylated hydroxyanisole], the cell viability result in data set [2] (5 days, 200 ug butylated hydroxyanisole (control)) is “too low”. In addition, in data set [3], the “maintenance of the morphology of neural cells” value is “destroyed after 24 hours”.

(Values after patent publication US9499787B2, “Method for differentiating stem cells into neurons” (Dongguk University Industry-Academic Cooperation Foundation, priority 2012, dated 2016).)
